Assay results: US20250145561A1, “4-SUBSTITUTED-PHENYL ACETAMIDES AND ARYLUREAS AS AGONISTS FOR THE ORPHAN RECEPTOR GPR88” (RESEARCH TRIANGLE INSTITUTE, priority 2022, published 2025)

Target: T1, GPR88 (Homo sapiens, UniProt Q9GZN0)
T1 construct: expressed in transfected cells
Experiment: Lance Ultra TR-FRET cAMP assay using stable PPLS-HA-GPR88 CHO cells
Format: cell-based
Details: for Emax: CHO; for EC50 / cAMP pEC50: stable PPLS-HA-GPR88 CHO cells; for EC50: value in parentheses beside pEC50; for cAMP pEC50: 300 nM forskolin, mean ± standard error of at least three independent experiments in duplicate
Procedure: The compounds of the present disclosure offer potent agonism to the orphan receptor GPR88. As such, the compounds of the present disclosure provide therapeutic potential for the treatment of striatal associated disorders such as Parkinson's disease, schizophrenia, and alcohol addiction. All compounds were evaluated for the GPR88 agonist activity in the inventors' previously established in vitro GPR88 Lance TR-FRET cAMP assay. See, supra, Jin et al., 2018, Rahman et al., 2020, and Rahman et al., 2021. As will be described, the TR-FRET signal was converted to fmol cAMP by interpolating from the standard cAMP curve. Fmol cAMP was plotted against the log of compound concentration and data were fit to a three-parameter logistic curve to generate maximum response (Emax) and EC50 values.
Lance™ Ultra cAMP assay using stable PPLS-HA-GPR88 CHO cells. All cAMP assays were performed using the inventors' previously published methods. […] ACS Chemical Neuroscience 2016, 7, 1418-1432, which is incorporated by reference herein with regard to such teaching. Stimulation buffer containing 1× Hank's Balanced Salt Solution (HBSS), 5 mM HEPES, 0.1% BSA stabilizer, and 0.5 mM final IBMX was prepared and titrated to pH 7.4 at room temperature. Serial dilutions of the test compounds (5 μL) and 300 nM forskolin (5 μL), both prepared at 4× the desired final concentration in 2% DMSO/stimulation buffer, were added to a 96-well white ½ area microplate (PerkinElmer). A cAMP standard curve was prepared at 4× the desired final concentration in stimulation buffer and 5 μL was added to the assay plate. Stable PPLS-HA-GPR88 CHO cells were lifted with versene and spun at 270 g for 10 minutes. The cell pellet was resuspended in stimulation buffer and 4,000 cells (10 μL) were added to each well except wells containing the cAMP standard curve. After incubating for 30 min at room temperature, Eu-cAMP tracer and uLIGHT-anti-cAMPworking solutions were added per the manufacturer's instructions. After incubation at room temperature for 1 hour, the TR-FRET signal (ex 337 nm) was read on a CLARIOstar multimode plate reader (BMG Biotech, Cary, NC).
Data Analysis. The TR-FRET signal (665 nm) was converted to fmol cAMP by interpolating from the standard cAMP curve. Fmol cAMP was plotted against the log of compound concentration and data were fit to a three-parameter logistic curve to generate EC50 values (Prism, version 6.0, GraphPad Software, Inc., San Diego, CA).

T1 sequence (Q9GZN0 whole entry): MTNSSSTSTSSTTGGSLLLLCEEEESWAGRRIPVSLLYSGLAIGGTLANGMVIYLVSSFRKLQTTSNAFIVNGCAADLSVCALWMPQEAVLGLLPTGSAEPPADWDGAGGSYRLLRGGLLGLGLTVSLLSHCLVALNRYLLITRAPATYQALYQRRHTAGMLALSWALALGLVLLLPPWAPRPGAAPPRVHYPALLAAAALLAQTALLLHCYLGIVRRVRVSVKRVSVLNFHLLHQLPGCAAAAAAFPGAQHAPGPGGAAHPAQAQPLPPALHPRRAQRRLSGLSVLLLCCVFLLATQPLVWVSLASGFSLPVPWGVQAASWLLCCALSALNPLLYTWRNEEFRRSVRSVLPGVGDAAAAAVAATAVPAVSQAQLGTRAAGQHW

Structure (SMILES)	Emax [%]	EC50 [nM]	cAMP pEC50
CCCc1ccc(-c2ccc(C(C(=O)N[C@H](C)c3ccccc3)C(=O)OC)cc2)cc1 (mixture of isomers) [Compound 28, Methyl 2-{[(1 R)-1-Phenylethyl]carbamoyl}-2-{4′-propyl-[1,1′-biphenyl]-4-yl}acetate]	99 ± 6	1290	–
CCCc1ccc(-c2ccc(C(C(=O)NC)C(=O)N[C@H](C)c3ccccc3)cc2)cc1 (mixture of isomers) [Compound 29, N-Methyl-N′-[(1 R)-1-phenylethyl]-2-{4′-propyl-[1,1′-biphenyl]-4-yl}propanediamide]	105 ± 2	1380	–
CCCC(C)COc1ccc([C@H](CO)C(=O)N[C@H](C)c2ccccc2)cc1 (stereo partly drawn) [Compound 3, (2R)-3-Hydroxy-2-{4-[(2-methylpentyl)oxy]phenyl}-N-[(1 R)-1-phenylethyl]propanamide]	77 ± 4	–	–
CCCC(C)COc1ccc([C@@H](CO)C(=O)N[C@H](C)c2ccccc2)cc1 (stereo partly drawn) [Compound 4, (2S)-3-Hydroxy-2-{4-[(2-methylpentyl)oxy]phenyl}-N-[(1 R)-1-phenylethyl]propenamide]	94 ± 13	200	–
CCCC(C)COc1ccc([C@@H](CO)C(=O)N[C@@H](C)c2ccccc2)cc1 (stereo partly drawn) [Compound 5, (2S)-3-Hydroxy-2-{4-[(2-methylpentyl)oxy]phenyl}-N-[(1S)-1-phenylethyl]propenamide]	–	–	Inactive
CCCC(C)COc1ccc([C@H](CO)C(=O)N[C@@H](C)c2ccccc2)cc1 (stereo partly drawn) [Compound 6, (2R)-3-Hydroxy-2-{4-[(2-methylpentyl)oxy]phenyl}-N-[(1 S)-1-phenylethyl]propenamide]	–	–	Inactive
CC[C@H](C)COc1ccc([C@@H](CO)C(=O)N[C@H](C)c2ccccc2)cc1 [Compound 7, (2S)-3-Hydroxy-2-{4-[(2S)-2-methylbutoxy]phenyl}-N-[(1 R)-1-phenylethyl]propenamide]	88 ± 7	2000	–
CC[C@@H](C)COc1ccc([C@@H](CO)C(=O)N[C@H](C)c2ccccc2)cc1 [Compound 8, (2S)-3-Hydroxy-2-{4-[(2R)-2-methylbutoxy]phenyl}-N-[(1 R)-1-phenylethyl]propenamide]	96 ± 13	3090	–
CCCC(C)COc1ccc([C@@H](CO)C(=O)N[C@H](C)c2ccccc2C)cc1 (stereo partly drawn) [Compound 9, (2S)-3-Hydroxy-2-{4-[(2-methylpentyl)oxy]phenyl}-N-[(1 R)-1-(2-methylphenyl)ethyl]propenamide]	48 ± 8	–	–
CCCC(C)COc1ccc([C@@H](CO)C(=O)N[C@H](C)c2cccc(C)c2)cc1 (stereo partly drawn) [Compound 10, (2S)-3-Hydroxy-2-{4-[(2-methylpentyl)oxy]phenyl}-N-[(1 R)-1-(3-methylphenyl)ethyl]propenamide]	100 ± 3	–	–
CCCC(C)COc1ccc([C@@H](CO)C(=O)N[C@H](C)c2ccc(C)cc2)cc1 (stereo partly drawn) [Compound 11, (2S)-3-Hydroxy-2-{4-[(2-methylpentyl)oxy]phenyl}-N-[(1 R)-1-(4-methylphenyl)ethyl]propenamide]	102 ± 7	–	–
CCCC(C)COc1ccc([C@@H](CO)C(=O)N[C@H](C)c2ccc(F)cc2)cc1 (stereo partly drawn) [Compound 12, (2S)—N-[(1 R)-1-(4-Fluorophenyl)ethyl]-3-hydroxy-2-{4-[(2-methylpentyl)oxy]phenyl}propenamide]	92 ± 3	–	–
CCCC(C)COc1ccc([C@@H](CO)C(=O)N[C@H](C)c2ccc(OC)cc2)cc1 (stereo partly drawn) [Compound 13, (2S)-3-Hydroxy-N-[(1 R)-1-(4-methoxyphenyl)ethyl]-2-{4-[(2-methylpentyl)oxy]phenyl}propenamide]	94 ± 3	–	–
CCCC(C)COc1ccc([C@@H](CO)C(=O)Nc2ccccc2)cc1 (stereo partly drawn) [Compound 14, (2S)-3-Hydroxy-2-{4-[(2-methylpentyl)oxy]phenyl}-N-phenylpropanamide]	–	–	Inactive
CCCC(C)COc1ccc([C@@H](CO)C(=O)NCc2ccccc2)cc1 (stereo partly drawn) [Compound 15, (2S)—N-Benzyl-3-hydroxy-2-{4-[(2-methylpentyl)oxy]phenyl}propenamide]	99 ± 9	–	–
CCCC(C)COc1ccc([C@@H](CO)C(=O)NCCc2ccccc2)cc1 (stereo partly drawn) [Compound 16, (2S)-3-Hydroxy-2-{4-[(2-methylpentyl)oxy]phenyl}-N-(2-phenylethyl)propenamide]	97 ± 5	–	–

Structure (SMILES)	Emax [%]	EC50 [nM]	cAMP pEC50
CCCC(C)COc1ccc([C@@H](CO)C(=O)N[C@H](CC)c2ccccc2)cc1 (stereo partly drawn) [Compound 17, (2S)-3-Hydroxy-2-{4-[(2-methylpentyl)oxy]phenyl}-N-[(1 R)-1-phenylpropyl]propenamide]	102 ± 8	–	–
CCCC(C)COc1ccc([C@@H](CO)C(=O)N[C@H](COC)c2ccccc2)cc1 (stereo partly drawn) [Compound 18, (2S)-3-Hydroxy-N-[(1 S)-2-methoxy-1-phenylethyl]-2-{4-[(2-methylpentyl)oxy]phenyl}propenamide]	91 ± 4	–	–
CCCC(C)COc1ccc([C@@H](CO)C(=O)NC(C)(C)c2ccccc2)cc1 (stereo partly drawn) [Compound 19, (2S)-3-Hydroxy-2-{4-[(2-methylpentyl)oxy]phenyl}-N-(2-phenylpropan-2-yl)propenamide]	83 ± 2	1260	5.90 ± 0.05
CCCC(C)COc1ccc([C@@H](CO)C(=O)NC2(c3ccccc3)CC2)cc1 (stereo partly drawn) [Compound 20, (2S)-3-Hydroxy-2-{4-[(2-methylpentyl)oxy]phenyl}-N-(1-phenylcyclopropyl)propenamide]	81 ± 8	–	–
CCCC(C)COc1ccc([C@@H](CO)C(=O)N[C@H](C)c2ccccn2)cc1 (stereo partly drawn) [Compound 21, (2S)-3-Hydroxy-2-{4-[(2-methylpentyl)oxy]phenyl}-N-[(1 R)-1-(pyridin-2-yl)ethyl]propenamide]	93 ± 4	–	–
CCCC(C)COc1ccc([C@@H](CO)C(=O)N[C@H](C)c2ccco2)cc1 (stereo partly drawn) [Compound 22, (2S)—N-[(1 R)-1-(Furan-2-yl)ethyl]-3-hydroxy-2-{4-[(2-methylpentyl)oxy]phenyl}propenamide]	108 ± 6	–	–
CCCC(C)COc1ccc([C@@H](CO)C(=O)N[C@H](C)c2cccs2)cc1 (stereo partly drawn) [Compound 23, (2S)-3-Hydroxy-2-{4-[(2-methylpentyl)oxy]phenyl}-N-[(1 R)-1-(thiophen-2-yl)ethyl]propenamide]	93 ± 5	–	–
CCCC(C)COc1ccc([C@@H](CO)C(=O)N[C@@H]2C[C@H]2c2ccccc2)cc1 (some centres unmarked) [Compound 24]	83 ± 5	–	–
CCCc1ccc(-c2ccc([C@@H](CO)C(=O)N[C@H](C)c3ccccc3)cc2)cc1 [Compound 25, (2S)-3-Hydroxy-N-[(1 R)-1-phenylethyl]-2-{4′-propyl-[1,1′-biphenyl]-4-yl}propenamide]	96 ± 3	138	–
CCCc1ccc(-c2ccc(CC(=O)N[C@H](C)c3ccccc3)cc2)cc1 [Compound 26, N-[(1 R)-1-Phenylethyl]-2-{4′-propyl-[1,1′-biphenyl]-4-yl}acetamide]	95 ± 5	257	–
CCCc1ccc(-c2ccc([C@@H](CC)C(=O)N[C@H](C)c3ccccc3)cc2)cc1 [Compound 27, (2R)—N-[(1 R)-1-Phenylethyl]-2-{4′-propyl-[1,1′-biphenyl]-4-yl}butanamide]	93 ± 9	501	–
CCCc1ccc(-c2ccc([C@@H](Cn3cncn3)C(=O)N[C@H](C)c3ccccc3)cc2)cc1 [Compound 30]	96 ± 3	1100	–
CCCc1ccc(-c2ccc([C@@H](Cn3ccnn3)C(=O)N[C@H](C)c3ccccc3)cc2)cc1 [Compound 31, (2S)—N-[(1 R)-1-Phenylethyl]-2-{4′-propyl-[1,1′-biphenyl]-4-yl}-3-(1H-1,2,3-triazol-1-yl)propenamide]	96	631	–
C[C@@H](NC(=O)[C@H](CO)c1ccc(-c2ccc(C3CCC3)cc2)cc1)c1ccccc1 [Compound 32, (2S)-2-{4′-Cyclobutyl-[1,1′-biphenyl]-4-yl}-3-hydroxy-N-[(1 R)-1-phenylethyl]propenamide]	74 ± 7	355	–
C[C@@H](NC(=O)[C@H](CO)c1ccc(-c2ccc(CC3CC3)cc2)cc1)c1ccccc1 [Compound 33, (2S)-2-[4′-(Cyclopropylmethyl)-[1,1′-biphenyl]-4-yl]-3-hydroxy-N-[(1 R)-1-phenylethyl]propenamide]	87 ± 5	263	–
C[C@@H](NC(=O)[C@H](CO)c1ccc(-c2ccc(OC3CC3)cc2)cc1)c1ccccc1 [Compound 34, (2S)-2-{4′-cyclopropoxy-[1,1′-biphenyl]-4-yl}-3-hydroxy-N-[(1 R)-1-phenylethyl]propenamide]	86	245	–
